The SangsterLogP compilation

assay: method code SF-AS, from DOI: 10.1021/jm00294a001, PMID: 5116225

logP | SMILES
1.03 | C=C1C(=O)OC2C1CCC(C)C1C=CC(=O)C12C (centres undefined)
0.79 | C=CC12COC(=O)C(=C)C1C1OC(=O)C(=C)C1C(OC(C)=O)C2 (centres undefined)
1.23 | C=C1C(=O)O[C@@H]2/C=C(/C)C[C@H](O)/C=C(/C)CC[C@@H]12
1.69 | C=C1C(=O)OC2C1C(OC(=O)C(C)=CC)CC(=C)C1C(O)C3OC3(C)C21O (centres undefined)
1.14 | C=C1C(=O)OC2CC(C)=CCC(OC(C)=O)C(C)=CC(OC(C)=O)C12 (centres undefined)
0.66 | C=C1C(=O)O[C@@H]2[C@H]1CC[C@H](C)[C@@H]1C[C@@H](O)C(=O)[C@@]21C
0.31 | C=C[C@@]12COC(=O)C(=C)[C@@H]1[C@H]1OC(=O)C(=C)[C@@H]1[C@@H](O)C2
1.16 | C=C1C(=O)OC2C=C(C)C(OC(C)=O)CC(O)C(C)=CC(OC(=O)C(C)=CC)C12 (centres undefined)
1.56 | C=C[C@@]12COC(=O)C(=C)[C@@H]1[C@H]1OC(=O)C(=C)[C@@H]1[C@@H](OC(=O)C(=C)C)C2
1.19 | C=C1C(=O)OC2C=C(C)C3(O)C=CC(C)(CC(OC(=O)C(=CC)COC(C)=O)C12)O3 (centres undefined)
0.25 | C=CC12COC(=O)C(=C)C1C(OC(C)=O)C1C(=C)C(=O)OC1C2 (centres undefined)
-0.64 | C=C1C(=O)O[C@H]2CC3=C[C@@H](C[C@@]4(C)O[C@@H]4[C@@H](O)[C@H]12)OC3=O
0.76 | C=C1C(=O)O[C@H]2[C@H]1[C@H](OC(=O)/C(C)=C\C)C[C@]1(CO1)[C@@H]1[C@H](OC(C)=O)C=C(C)[C@]21O
0.83 | C=C1C(=O)O[C@@H]2[C@H]1CC[C@H](C)[C@]1(O)CCC(=O)[C@@]21C
1.09 | C=C1C(=O)OC2C=C(C)C3C(OC(C)=O)CC(O)C3CC12 (centres undefined)
1.05 | C=C1C(=O)O[C@H]2[C@H]1[C@@H](OC(=O)C=C(C)C)CC1=C[C@@H](C[C@@]3(C)O[C@H]23)OC1=O
0.69 | C=C(C)C(=O)O[C@H]1CC2=C[C@@H](C[C@@]3(C)O[C@@H]3[C@H]3OC(=O)C(=C)[C@@H]31)OC2=O
1.4 | C=C1C(=O)OC2C=C(C)C(O)CC=C(C)CCC12 (centres undefined)
0.23 | C=C1C(=O)OC2C1C(O)CC(C)C1CCC(=O)C12C (centres undefined)
1.42 | C=C1C(=O)OC2C1C(OC(=O)C(C)=CC)CC(O)(CCl)C1C(OC(C)=O)C=C(C)C21O (centres undefined)

SMILES | logP
C=CC12COC(=O)C(=C)C1C(O)C1C(=C)C(=O)OC1C2 (centres undefined) | -0.14
C=C1C(=O)O[C@H]2C[C@@H](C)[C@@H]3C=CC(=O)[C@@]3(C)C[C@H]12 | 1.17
C=C1C(=O)OC2C1CCC(C)C1(O)C=CC(=O)C21C (centres undefined) | 0.77
C=C1C(=O)O[C@@H]2C[C@@H](C)[C@@H]3C=CC(=O)[C@@]3(C)[C@@H](O)[C@H]12 | 0.87
